{"source": "patent US20240390296A1", "about": "“R-KETAMINE AND DERIVATIVE THEREOF AS PROPHYLACTIC OR THERAPEUTIC AGENT FOR NEURODE[…] OR R[…]” (National University Corporation Chiba University, priority 2017, published 2024)", "key": {"[1]": {"system": "MPTP-treated mice", "assay": "MPTP mouse model of Parkinson's disease, DAT immunohistochemistry in the striatum", "assay_type": "in vivo", "source_text": "A Parkinson's disease model animal (Jackson-Lewis V. et al. Protocol for the MPTP mouse model of Parkinson's disease. Nat Protoc. 2007; 2 (1): 141-51.), which is a representative Parkinson's disease animal model and has been used by a number of research groups so far, was used to study the therapeutic effect of R-ketamine and S-ketamine on the loss of the dopamine nervous system in the brain of the model animal.\nThe creation of the Parkinson's disease model animal and the administration of the drug were specifically carried out as described below (FIG. 1). As the mouse, a male C57BL/6N mouse (12 weeks of age, SLC Japan Co., Ltd., Hamamatsu, Japan) was purchased. Mice had free access to water and food. For the experiment, those above 14 weeks of age were used. On the first day of the experiment, physiological saline (5 mL/kg body weight) or MPTP (10 mg/kg body weight) was intraperitoneally administered three times at two hours intervals. Three hours after the final administration, R-ketamine (10 mg/kg body weight) or S-ketamine (10 mg/kg body weight), or a vehicle (physiological saline 0.5 mL/kg) was intranasally administered. Similarly, from the second day to the seventh day of the experiment, R-ketamine (10 mg/kg body weight) or S-ketamine (10 mg/kg body weight), or the vehicle (physiological saline 0.5 mL/kg) was intranasally administered. (A) is a group administered with physiological saline+physiological saline, (B) is a group administered with MPTP+physiological saline, (C) is a group administered with MPTP+R-ketamine, and (D) is a group administered with MPTP+S-ketamine. On the eighth day of the experiment, mice were perfused and fixed, and immunohistochemistry of dopamine transporter (DAT) was carried out. The immunohistochemistry of DAT was photographed with a microscope equipped with a CCD camera (Olympus IX70, Tokyo, Japan), and the shading was analyzed using SCION IMAGE software. Representative immunohistochemical photographs were taken with a Keyence microscope (BZ-9000, Osaka, Japan).\nStatistical analysis was carried out by one-way analysis of variance (one-way ANOVA) followed by Tukey's test (Tukey HSD test). Data are expressed as mean±standard error (n=7 to 8 mouse/group). * p<0.05, ** p<0.01, and *** p<0.001 show significant differences compared to the (B) group of mice treated with MPTP+physiological saline.\nThe test was carried out in the same manner as in the test in FIG. 1 except that R-ketamine (10 mg/kg body weight) or the vehicle (physiological saline 0.5 mL/kg) was intranasally administered once (FIG. 4). There were a group administered with physiological saline+physiological saline, a group administered with MPTP+physiological saline, and a group administered with MPTP+R-ketamine.\nThe test was carried out in the same manner as in the test in FIG. 1 except that R-norketamine (10 mg/kg body weight) or S-norketamine (10 mg/kg body weight) was administered (FIG. 6). There were a group administered with physiological saline+physiological saline, a group administered with MPTP+physiological saline, a group administered with MPTP+R-norketamine, and a group administered with MPTP+S-norketamine.\nThe test was carried out in the same manner as in the test in FIG. 1 except that ANA-12 (0.5 mg/kg), an antagonist of the TrkB receptor for brain-derived neurotrophic factor (BDNF: Brain-derived Neurotrophic Factor), was administered before the administration of R-ketamine. (FIG. 8). It should be noted that in FIG. 8, ANA-12 is described as ANA. There was a group administered with physiological saline+physiological saline, a group administered with MPTP+physiological saline, a group administered with MPTP+R-ketamine, a group administered with MPTP+R-ketamine+ANA-12, and a group administered with MPTP+ANA-12."}, "[2]": {"system": "β-amyloid-treated mice", "assay": "Alzheimer's disease model (intracerebroventricular β-amyloid), novel object recognition test (NORT)", "assay_type": "in vivo, mouse", "conditions": "10 mg/kg intraperitoneal once a day, day 2 to day 10; test session day 15; male ICR mice", "source_text": "Using an animal model of Alzheimer's disease (intracerebroventricular administration of β-amyloid), which has been used by a number of research groups so far, the therapeutic effect of R-ketamine and S-ketamine on the cognitive dysfunction was studied.\nThe creation of the Alzheimer's disease model animal and the administration of the drug were specifically carried out as described below (FIG. 10). As the mouse, a male ICR mouse (five weeks of age, SLC Japan Co., Ltd., Hamamatsu, Japan) was purchased. Mice had free access to water and food. First, β-amyloid (BACHEM, Cat. #: H-1192.0005) was incubated at 37° C. for four days to let aggregate. On the first day of the experiment, mice were anesthetized with isoflurane and pentobarbital, and placed on a mouse brain fixation apparatus. Distilled water (6 μL) or β-amyloid (6 μg) was administered intracerebroventricularly. […] On the 14th day of the experiment, two objects having different shapes and colors were placed on the NORT apparatus at a distance of 35.5 cm, and the time for searching for each object was measured. […] The time to search for two objects was measured, and the ratio of the time to search for a new object to the time to search for the two objects in the test session on the second day was calculated. […]"}, "[3]": {"system": "α-synuclein-treated mice", "assay": "Lewy body dementia model (intracerebroventricular α-synuclein), novel object recognition test (NORT)", "assay_type": "in vivo, mouse", "conditions": "10 mg/kg intraperitoneal once a day, day 2 to day 10; test session day 15; male ICR mice", "source_text": "The therapeutic effects of R-ketamine and S-ketamine on cognitive dysfunction were studied using animal models of Lewy body dementia and diseases caused by α-synuclein aggregation (intracerebroventricular administration of α-synuclein), which have been used by a number of research groups so far.\nThe creation of the Lewy body dementia model animal and the administration of the drugs were specifically carried out as described below (FIG. 12). As the mouse, a male ICR mouse (five weeks of age, SLC Japan Co., Ltd., Hamamatsu, Japan) was purchased. Mice had free access to water and food. First, α-synuclein (StressMarq @ Bioscience, Cat #: SPR-322) was incubated at 37° C. for four days to let aggregate. On the first day of the experiment, mice were anesthetized with isoflurane and pentobarbital, and placed on a mouse brain fixation apparatus. Physiological saline (6 μL) or α-synuclein (6 μg) was administered intracerebroventricularly. […]\nStatistical analysis was carried out by one-way analysis of variance (one-way ANOVA) followed by the Fisher's least significant difference test (Fisher's Least Significant Difference test). Data are expressed as mean±standard error (n=4 mouse/group). * p<0.05 and ** p<0.01 show significant differences compared to the group of mice treated with α-synuclein+physiological saline."}, "[4]": {"conditions": "animal experiments, non-patent literature 5; cited from earlier work"}, "[5]": {"system": "NMDA receptor", "conditions": "non-patent literature 4; cited from earlier work"}, "[6]": {"system": "animal model of Parkinson's disease", "conditions": "50 mg/kg (anesthetic dose), cited from earlier work"}, "[7]": {"conditions": "10 mg/kg intranasal, day 1 (3 h after last MPTP) to day 7, DAT on day 8, male C57BL/6N mice"}}, "data": [{"smiles": "O=C(Nc1ccccc1C(=O)NC1CCCCNC1=O)c1cc2ccccc2s1", "note": "(centres unmarked) [ANA-12]", "values": [{"measurement": "MPTP-induced decrease in DAT density", "setting": "[1]; ANA-12 alone, 0.5 mg/kg", "result": "did not affect MPTP-induced decrease in DAT density"}]}, {"smiles": "N[C@@]1(c2ccccc2Cl)CCCCC1=O", "note": "[R-norketamine]", "values": [{"measurement": "MPTP-induced decrease in DAT density in the striatum", "setting": "[1]; [7]", "result": "did not suppress MPTP-induced decrease in DAT density"}]}, {"smiles": "N[C@]1(c2ccccc2Cl)CCCCC1=O", "note": "[S-norketamine]", "values": [{"measurement": "MPTP-induced decrease in DAT density in the striatum", "setting": "[1]; [7]", "result": "did not suppress MPTP-induced decrease in DAT density"}]}, {"smiles": "CN[C@@]1(c2ccccc2Cl)CCCCC1=O", "note": "[R-ketamine]", "values": [{"measurement": "MPTP-induced decrease in DAT density in the striatum", "setting": "[1]; [7]", "result": "significantly improved the decrease in DAT density"}, {"measurement": "MPTP-induced decrease in DAT density in the striatum", "setting": "[1]; 10 mg/kg intranasal, single administration", "result": "suppressed MPTP-induced decrease in DAT density"}, {"measurement": "MPTP-induced decrease in DAT density in the striatum", "setting": "[1]; R-ketamine 10 mg/kg intranasal with ANA-12 (0.5 mg/kg) administered before", "result": "No effect of R-ketamine was observed"}, {"measurement": "decrease in cognitive function caused by β-amyloid administration (NORT)", "setting": "[2]", "result": "significantly improved the decrease in cognitive function"}, {"measurement": "decrease in cognitive function caused by α-synuclein administration (NORT)", "setting": "[3]", "result": "significantly improved the decrease in cognitive function"}, {"measurement": "side effects (psychotic disorder triggering effect, drug dependency, and the like) compared with S-ketamine", "setting": "[4]", "result": "fewer side effects"}]}, {"smiles": "CN[C@]1(c2ccccc2Cl)CCCCC1=O", "note": "[S-ketamine]", "values": [{"measurement": "MPTP-induced decrease in DAT density in the striatum", "setting": "[1]; [7]", "result": "did not improve the decrease in DAT density"}, {"measurement": "decrease in cognitive function caused by β-amyloid administration (NORT)", "setting": "[2]", "result": "did not improve the decrease in cognitive function"}, {"measurement": "affinity for the NMDA receptor relative to R-ketamine", "setting": "[5]", "result": "about four times higher than R-ketamine"}]}, {"smiles": "CNC1(c2ccccc2Cl)CCCCC1=O", "note": "(racemic) [RS-ketamine]", "values": [{"measurement": "neuroprotective effect in an animal model of Parkinson's disease", "setting": "[6]; non-patent literature 2", "result": "has a neuroprotective effect"}, {"measurement": "side effects such as an acute activity increase effect", "setting": "[6]", "result": "notably observed"}]}]}
